Columns and labels:
[1] = refractive index (Na D-line) (dimensionless); mn = molality of the nth substance listed, in mol/kg; details: 85 kPa, Liquid, Standard Abbe refractometry
[2] = mn = molality of the nth substance listed, in mol/kg; details: 85 kPa, Liquid; for viscosity: Falling or rolling sphere viscometry; for speed of sound: Frequency=3 MHz, Single path-length method; for mass density: Vibrating tube method

C[C@H](N)C(=O)[O-].C[N+](C)(C)CCO [2-hydroxy-N,N,N-trimethylethanaminium L-alaninate] + O
Details | mass density, [2] [kg/m3] | refractive index, [1] | speed of sound, [2] [m/s] | viscosity, [2] [mPa·s]
288.15 K, m1 = 0.0108 | 999.398 | 1.3338 | 1468 | 1.143
288.15 K, m1 = 0.0204 | 999.663 | 1.334 | 1469.3 | 1.147
288.15 K, m1 = 0.03 | 999.914 | 1.3342 | 1470.7 | 1.151
288.15 K, m1 = 0.0401 | 1000.17 | 1.3345 | 1472.1 | 1.155
288.15 K, m1 = 0.0509 | 1000.44 | 1.3349 | 1473.6 | 1.16
288.15 K, m1 = 0.0583 | 1000.62 | 1.3351 | 1474.6 | 1.163
298.15 K, m1 = 0.0108 | 997.345 | 1.3331 | 1498.4 | 0.897
298.15 K, m1 = 0.0204 | 997.608 | 1.3333 | 1499.7 | 0.9
298.15 K, m1 = 0.03 | 997.858 | 1.3335 | 1501 | 0.903
298.15 K, m1 = 0.0401 | 998.115 | 1.3337 | 1502.4 | 0.906
298.15 K, m1 = 0.0509 | 998.382 | 1.3341 | 1503.9 | 0.91
298.15 K, m1 = 0.0583 | 998.553 | 1.3343 | 1504.9 | 0.912
308.15 K, m1 = 0.0108 | 994.326 | 1.3319 | 1521.6 | 0.732
308.15 K, m1 = 0.0204 | 994.588 | 1.3321 | 1522.9 | 0.735
308.15 K, m1 = 0.03 | 994.839 | 1.3323 | 1524.2 | 0.737
308.15 K, m1 = 0.0401 | 995.097 | 1.3326 | 1525.6 | 0.74
308.15 K, m1 = 0.0509 | 995.362 | 1.333 | 1527 | 0.743
308.15 K, m1 = 0.0583 | 995.534 | 1.3333 | 1528 | 0.745
318.15 K, m1 = 0.0108 | 990.514 | 1.3304 | 1537.5 | 0.604
318.15 K, m1 = 0.0204 | 990.779 | 1.3306 | 1538.8 | 0.607
318.15 K, m1 = 0.03 | 991.029 | 1.3309 | 1540 | 0.609
318.15 K, m1 = 0.0401 | 991.289 | 1.3312 | 1541.3 | 0.611
318.15 K, m1 = 0.0509 | 991.561 | 1.3315 | 1542.8 | 0.613
318.15 K, m1 = 0.0583 | 991.728 | 1.3318 | 1543.7 | 0.615

From the NIST ThermoML archive (doi:10.1016/j.jct.2018.12.022)
